Data published in patent US4317824A, “Derivatives of quinoxaline-1,4-dioxides” (Abic, Ltd., priority 1976, dated 1982).
Converted amounts (≈) assume the structure as drawn.

Columns and labels:
Staph. Aur. = experiment: antimicrobial activity, minimal inhibitory concentration, Staph. Aur.; format: cell-based
Experimental: (§1) The antimicrobial activity of some compounds according to the present invention was measured and the results are shown in the following Tables. The activity is indicated as the minimal inhibitory concentration in μg/ml.

B. Cereus = experiment: antimicrobial activity, minimal inhibitory concentration, B. Cereus; format: cell-based; conditions: Bacillus cereus
Experimental: as §1

E. Coli [1] = experiment: antimicrobial activity, minimal inhibitory concentration, E. Coli; format: cell-based; conditions: Escherichia coli
Experimental: as §1

Cand. Alb. = experiment: antimicrobial activity, minimal inhibitory concentration, Cand. Alb.; format: cell-based
Experimental: as §1

Trichophyt. Rubrum = experiment: antimicrobial activity, minimal inhibitory concentration, Trichophyt. Rubrum; format: cell-based
Experimental: as §1

Crypt. Neof. = experiment: antimicrobial activity, minimal inhibitory concentration, Crypt. Neof.; format: cell-based
Experimental: as §1

Mycoplasma gallisept = experiment: antimicrobial activity, minimal inhibitory concentration, Mycoplasma gallisept; format: cell-based
Experimental: as §1

Proteus = experiment: antimicrobial activity, minimal inhibitory concentration, Proteus; format: cell-based
Experimental: as §1

Pseud. Aur. = experiment: antimicrobial activity, minimal inhibitory concentration, Pseud. Aur.; format: cell-based
Experimental: as §1

B. Subtilis = experiment: antimicrobial activity, minimal inhibitory concentration, B. Subtilis; format: cell-based; conditions: Bacillus subtilis
Experimental: as §1

Shig. Flex. = experiment: antimicrobial activity, minimal inhibitory concentration, Shig. Flex.; format: cell-based
Experimental: as §1

Salm. Typh. = experiment: antimicrobial activity, minimal inhibitory concentration, Salm. Typh.; format: cell-based; conditions: read-out: minimal inhibitory concentration
Experimental: as §1

E. Coli [2] = experiment: Systemic E. Coli infection in mice; format: in vivo; conditions: systemic E. Coli infection, 2,5 mg × 2 per day
Experimental: (§2) Some compounds of general formula Id were tested also in vivo.

St. aur = experiment: Systemic St. aur infection in mice; format: in vivo; conditions: systemic St. aur infection, 2,5 mg × 2 per day
Experimental: as §2

E. Coli [3] = experiment: E. Coli infections chick; format: in vivo; conditions: 50 mg/kg
Experimental: as §2

E. Coli [4] = experiment: U. Tract infections in mice (E. Coli); format: in vivo; conditions: U. Tract infections (E. Coli), 2,5 mg × 10 days
Experimental: as §2

Row | SMILES | MIC (Staph. Aur.) [µg/mL] | MIC (B. Cereus) [µg/mL] | MIC (E. Coli [1]) [µg/mL] | MIC (Cand. Alb.) [µg/mL] | MIC (Trichophyt. Rubrum) [µg/mL] | MIC (Crypt. Neof.) [µg/mL] | MIC (Mycoplasma gallisept) [µg/mL] | MIC (Proteus) [µg/mL] | MIC (Pseud. Aur.) [µg/mL] | MIC (B. Subtilis) [µg/mL] | MIC (Shig. Flex.) [µg/mL] | MIC (Salm. Typh.) [µg/mL] | Protection (E. Coli [2]) | Protection (St. aur) | Protection (E. Coli [3]) | Protection (E. Coli [4])
1 | CN1CCN(NC(=NO)c2c[n+]([O-])c3ccccc3[n+]2[O-])CC1 | 50 (≈ 157 µM) | 50 (≈ 157 µM) | 25 (≈ 78.5 µM) | 25 (≈ 78.5 µM) | 25 (≈ 78.5 µM) | 10 to 25 (≈ 31.4 to 78.5 µM) | 2 (≈ 6.28 µM) | 11 to 100 (≈ 34.6 to 314 µM) | 11 to 100 (≈ 34.6 to 314 µM) |  |  |  |  |  |  | 
2 | [O-][n+]1cc(C(Cl)=NO)[n+]([O-])c2ccccc21 [Example 6, 2(α-chloro)-carboxaldoxime-quinoxaline-1,4-dioxide] | 25 (≈ 104 µM) | 25 (≈ 104 µM) | 25 (≈ 104 µM) |  | 11 to 100 (≈ 45.9 to 417 µM) |  | 25 to 50 (≈ 104 to 209 µM) |  |  | 11 to 100 (≈ 45.9 to 417 µM) | 11 to 100 (≈ 45.9 to 417 µM) |  |  |  |  | 
3 | Cc1ccc2c(c1)[n+]([O-])c(C(Cl)=NO)c[n+]2[O-] [Example 7, 2-(α-chloro)-carboxaldoxime-7-methyl-quinoxaline-1,4-dioxide] | 25 (≈ 98.6 µM) | 25 (≈ 98.6 µM) | 25 (≈ 98.6 µM) | 25 (≈ 98.6 µM) | 25 (≈ 98.6 µM) | 50 (≈ 197 µM) |  |  |  | 11 to 100 (≈ 43.4 to 394 µM) | 11 to 100 (≈ 43.4 to 394 µM) |  |  |  |  | 
4 | [O-][n+]1cc(C(Cl)=NO)[n+]([O-])c2cc(Cl)ccc21 [Example 8, 2-(α-chloro)-carboxaldoxime-7-chloro-quinoxaline-1,4-dioxide] | 25 (≈ 91.2 µM) | 10 (≈ 36.5 µM) | 25 (≈ 91.2 µM) |  | 11 to 100 (≈ 40.1 to 365 µM) |  | 10 to 25 (≈ 36.5 to 91.2 µM) |  |  | 11 to 100 (≈ 40.1 to 365 µM) | 11 to 100 (≈ 40.1 to 365 µM) |  |  |  |  | 
5 | Cc1cc2c(cc1C)[n+]([O-])c(C(Cl)=NO)c[n+]2[O-] [Example 9, 2-(α-chloro)-carboxaldoxime-6.7-dimethyl-quinoxaline-1,4-dioxide] | 11 to 100 (≈ 41.1 to 374 µM) | 11 to 100 (≈ 41.1 to 374 µM) | > 100 |  | 11 to 100 (≈ 41.1 to 374 µM) |  |  |  |  | > 100 | > 100 | > 100 |  |  |  | 
6 | CCC(=O)ON=C(Cl)c1c[n+]([O-])c2ccc(Cl)cc2[n+]1[O-] [Example 10, 2-(α-chloro-0-propionyl)-carboxaldoxime-7-chloro-quinoxaline-1,4-dioxide] | 11 to 100 (≈ 33.3 to 303 µM) |  |  | 1 (≈ 3.03 µM) | 1 (≈ 3.03 µM) | 1 (≈ 3.03 µM) |  |  |  | 11 to 100 (≈ 33.3 to 303 µM) |  |  |  |  |  | 
7 | CC(=O)ON=C(Cl)c1c[n+]([O-])c2ccc(Cl)cc2[n+]1[O-] [Example 11, 2-[α-chloro-(0-acetyl)-carboxaldoxime]-7-chloro-quinoxaline-1,4-dioxide] | 11 to 100 (≈ 34.8 to 316 µM) |  |  | 1 (≈ 3.16 µM) | 2 (≈ 6.33 µM) | 2 (≈ 6.33 µM) |  |  |  | 11 to 100 (≈ 34.8 to 316 µM) | 11 to 100 (≈ 34.8 to 316 µM) |  |  |  |  | 
8 | CC(=O)ON=C(Cl)c1c[n+]([O-])c2ccc(C)cc2[n+]1[O-] [Example 12, 2-[α-chloro-(0-acetyl)-7-methyl-quinoxaline]-1,4-dioxide] |  |  |  | 10 (≈ 33.8 µM) | 1 (≈ 3.38 µM) | 10 (≈ 33.8 µM) |  |  |  | 11 to 100 (≈ 37.2 to 338 µM) | 11 to 100 (≈ 37.2 to 338 µM) |  |  |  |  | 
9 | O=C(CCl)ON=C(Cl)c1c[n+]([O-])c2ccccc2[n+]1[O-] [Example 13, 2-[α-chloro-(0-chloroacetylcarboxaldoxime)]-quinoxaline-1,4-dioxide] | 20 (≈ 63.3 µM) | 25 (≈ 79.1 µM) | 25 (≈ 79.1 µM) |  | 11 to 100 (≈ 34.8 to 316 µM) |  | 25 (≈ 79.1 µM) |  |  | 11 to 100 (≈ 34.8 to 316 µM) | 11 to 100 (≈ 34.8 to 316 µM) | 50 (≈ 158 µM) |  |  |  | 
10 | O=C(ON=C(Cl)c1c[n+]([O-])c2ccccc2[n+]1[O-])c1ccc([N+](=O)[O-])cc1 [Example 14] |  |  |  |  | 11 to 100 (≈ 28.3 to 257 µM) |  | 50 (≈ 129 µM) |  |  |  | 11 to 100 (≈ 28.3 to 257 µM) | 11 to 100 (≈ 28.3 to 257 µM) |  |  |  | 
11 | CCOC(=NO)c1c[n+]([O-])c2ccccc2[n+]1[O-] [Example 17 (ethoxy), 2-(α-ethoxy)-carboxaldoxime-quinoxaline-1,4 dioxide] | 10 (≈ 40.1 µM) |  | 11 to 100 (≈ 44.1 to 401 µM) |  |  |  |  |  |  | 11 to 100 (≈ 44.1 to 401 µM) | 11 to 100 (≈ 44.1 to 401 µM) | 11 to 100 (≈ 44.1 to 401 µM) |  |  |  | 
12 | COC(=NO)c1c[n+]([O-])c2ccccc2[n+]1[O-] [Example 17 (methoxy), 2-(α-methoxy)-carboxaldoxime-quinoxaline-1,4-dioxide] | 10 (≈ 42.5 µM) | 10 (≈ 42.5 µM) | 10 (≈ 42.5 µM) |  |  |  | 2 to 10 (≈ 8.5 to 42.5 µM) |  |  | 11 to 100 (≈ 46.8 to 425 µM) | 11 to 100 (≈ 46.8 to 425 µM) |  |  |  |  | 
13 | CNC(=NO)c1c[n+]([O-])c2ccccc2[n+]1[O-] [Example 18 (methylamino), 2-(N-methylamino)-carboxaldoxime-quinoxaline-1,4-dioxide] | 10 (≈ 42.7 µM) | 25 (≈ 107 µM) | 25 (≈ 107 µM) |  |  |  | 10 to 20 (≈ 42.7 to 85.4 µM) | 11 to 100 (≈ 47 to 427 µM) |  |  |  | 25 (≈ 107 µM) | + (indicates protection >80%) | + (indicates protection >80%) | + (indicates protection >80%) | 
14 | CCNC(=NO)c1c[n+]([O-])c2ccccc2[n+]1[O-] [Example 18, 2-(N-ethylamino)-carboxamidoxime-quinoxaline-1,4-dioxide] | 10 (≈ 40.3 µM) | 25 (≈ 101 µM) | 25 (≈ 101 µM) |  |  |  | 10 to 25 (≈ 40.3 to 101 µM) | 11 to 100 (≈ 44.3 to 403 µM) |  |  |  | 25 (≈ 101 µM) | + (indicates protection >80%) | +/- (indicates protection 50-80%) |  | 
15 | CN(C)NC(=NO)c1c[n+]([O-])c2ccccc2[n+]1[O-] [Example 21e, 2-(α-N-dimethyl-hydrazino)-carboxaldoxime-quinoxaline-1,4-dioxide] | 10 to 25 (≈ 38 to 95 µM) | 10 (≈ 38 µM) | 2 to 10 (≈ 7.6 to 38 µM) |  |  |  | 25 (≈ 95 µM) |  |  |  |  | 100 (≈ 380 µM) |  |  |  | 
16 | CCN(CC)C(=NO)c1c[n+]([O-])c2ccccc2[n+]1[O-] [Example 22, 2-(N-diethylamino)-carboxaldoxime-quinoxaline-1,4-dioxide] | 11 to 100 (≈ 39.8 to 362 µM) | 11 to 100 (≈ 39.8 to 362 µM) | 50 (≈ 181 µM) |  |  |  |  |  | 10 (≈ 36.2 µM) |  |  | 50 (≈ 181 µM) |  |  |  | 
17 | CC(=O)NNC(=NO)c1c[n+]([O-])c2ccccc2[n+]1[O-] [Example 24, 2-N-(acetyl-hydrazino)-carboxaldoxime-quinoxaline-1,4-dioxide] | 10 (≈ 36.1 µM) | 11 to 100 (≈ 39.7 to 361 µM) | 11 to 100 (≈ 39.7 to 361 µM) |  | 11 to 100 (≈ 39.7 to 361 µM) |  |  | 11 to 100 (≈ 39.7 to 361 µM) |  |  |  | 11 to 100 (≈ 39.7 to 361 µM) | + (indicates protection >80%) | + (indicates protection >80%) |  | 
18 | CN(C)C(=NO)c1c[n+]([O-])c2ccccc2[n+]1[O-] [Example 30, 2-(dimethylamino)-carboxaldoxime-quinoxaline-1,4-dioxide] | 10 (≈ 40.3 µM) | 50 (≈ 201 µM) | 10 (≈ 40.3 µM) |  |  |  |  |  |  |  |  |  | + (indicates protection >80%) | +/- (indicates protection 50-80%) | + (indicates protection >80%) | + (indicates protection >80%)
19 | CCC(=O)ON=C(Cl)c1c[n+]([O-])c2ccccc2[n+]1[O-] [Y = H, R = CH2CH3] | 10 (≈ 33.8 µM) | 25 (≈ 84.6 µM) | 25 (≈ 84.6 µM) |  |  |  |  |  |  | 11 to 100 (≈ 37.2 to 338 µM) | 11 to 100 (≈ 37.2 to 338 µM) | 25 (≈ 84.6 µM) |  |  |  | 
20 | [O-][n+]1cc(C(=NO)NN2CCOCC2)[n+]([O-])c2ccccc21 [drawing 5] | 11 to 100 (≈ 36 to 328 µM) |  |  |  | 1 (≈ 3.28 µM) |  |  |  |  | 11 to 100 (≈ 36 to 328 µM) |  |  |  |  |  | 
21 | CN1CCN(C(=NO)c2c[n+]([O-])c3ccccc3[n+]2[O-])CC1 [drawing 6] | 25 (≈ 82.4 µM) | 25 (≈ 82.4 µM) | 25 (≈ 82.4 µM) |  |  |  | 10 (≈ 33 µM) | 11 to 100 (≈ 36.3 to 330 µM) | 11 to 100 (≈ 36.3 to 330 µM) |  |  |  |  |  |  | 
22 | [O-][n+]1cc(C(=NO)NN2CCOCC2)[n+]([O-])c2ccccc21 [drawing 8] |  |  |  |  |  |  |  |  |  |  |  |  | + (indicates protection >80%) | + (indicates protection >80%) | - (indicates protection <50%) | 
